According to ChEMBL document CHEMBL4152293, “Synthesis and biological evaluation of podophyllotoxin derivatives as selective antitumor agents” (Eur J Med Chem, 2018):
The source made the active and inactive calls. The rule behind the calls is not given here.

Experiments:
MCF7 = experiment: Cytotoxicity against human MCF7 cells assessed as growth inhibition after 72 hrs by MTT assay; type: functional, cell-based; details: MCF7, 72 h
A549 [1] = experiment: Induction of apoptosis in human A549 cells after 72 hrs by annexin V-FITC/propidium iodide staining-based flow cytometric method; type: functional, cell-based
L02 [2] = experiment: Cell cycle arrest in human L02 cells assessed as accumulation at S phase at 5 nM after 72 hrs by propidium iodide staining-based flow cytometric method (reference value: 25.78%); type: ADME; details: l02, 72 h, 0.005 µM
A549 [3] = experiment: Induction of apoptosis in human A549 cells assessed as early apoptotic cells at 100 nM after 72 hrs by annexin V-FITC/propidium iodide staining-based flow cytometric method (reference value: 3%); type: functional
L02 [4] = experiment: Induction of apoptosis in human L02 cells assessed as late apoptotic cells at 10 nM after 72 hrs by annexin V-FITC/propidium iodide staining-based flow cytometric method (reference value: 1.6%); type: cell-based; details: l02, 72 h, 0.01 µM
A549 [5] = experiment: Cell cycle arrest in human A549 cells assessed as accumulation at G0/G1 phase at 100 nM after 72 hrs by propidium iodide staining-based flow cytometric method (reference value: 61.29%); type: functional
A549 [6] = experiment: Induction of apoptosis in human A549 cells assessed as necrotic cells at 10 nM after 72 hrs by annexin V-FITC/propidium iodide staining-based flow cytometric method (reference value: 0.1%); type: functional
A549 [7] = experiment: Cell cycle arrest in human A549 cells assessed as accumulation at G0/G1 phase at 10 nM after 72 hrs by propidium iodide staining-based flow cytometric method (reference value: 61.29%); type: functional
L02 [8] = experiment: Induction of apoptosis in human L02 cells assessed as late apoptotic cells at 100 nM after 72 hrs by annexin V-FITC/propidium iodide staining-based flow cytometric method (reference value: 1.6%); type: cell-based; details: l02, 72 h, 0.1 µM
A549 [9] = experiment: Induction of apoptosis in human A549 cells assessed as viable cells at 100 nM after 72 hrs by annexin V-FITC/propidium iodide staining-based flow cytometric method (reference value: 92.8%); type: functional; details: A549, 72 h, read-out: Activity
L02 [10] = experiment: Cell cycle arrest in human L02 cells assessed as accumulation at G0/G1 phase at 5 nM after 72 hrs by propidium iodide staining-based flow cytometric method (reference value: 57.34%); type: ADME; details: l02, 72 h, 0.005 µM
A549 [11] = experiment: Cell cycle arrest in human A549 cells assessed as accumulation at G2/M phase at 100 nM after 72 hrs by propidium iodide staining-based flow cytometric method (reference value: 14.23%); type: functional
A549 [12] = experiment: Induction of morphological changes in nucleus of human A549 cells at 10 to 30 nM after 72 hrs by DAPI staining-based fluorescence microscopic method; type: functional, cell-based
L02 [13] = experiment: Cytotoxicity against human L02 cells assessed as growth inhibition after 72 hrs by MTT assay; type: cell-based; details: L02, 72 h
A549 [14] = experiment: Induction of apoptosis in human A549 cells assessed as necrotic cells at 100 nM after 72 hrs by annexin V-FITC/propidium iodide staining-based flow cytometric method (reference value: 0.1%); type: functional
L02 [15] = experiment: Induction of apoptosis in human L02 cells assessed as early apoptotic cells at 200 nM after 72 hrs by annexin V-FITC/propidium iodide staining-based flow cytometric method (reference value: 2%); type: cell-based; details: l02, 72 h, 0.2 µM
L02 [16] = experiment: Cell cycle arrest in human L02 cells assessed as accumulation at G2/M phase at 10 nM after 72 hrs by propidium iodide staining-based flow cytometric method (reference value: 16.88%); type: ADME; details: l02, 72 h, 0.01 µM
A549 [17] = experiment: Induction of apoptosis in human A549 cells assessed as viable cells at 200 nM after 72 hrs by annexin V-FITC/propidium iodide staining-based flow cytometric method (reference value: 92.8%); type: functional; details: A549, 72 h, read-out: Activity
A549 [18] = experiment: Induction of apoptosis in human A549 cells assessed as late apoptotic cells at 100 nM after 72 hrs by annexin V-FITC/propidium iodide staining-based flow cytometric method (reference value: 4.1%); type: functional
[19] = Induction of apoptosis in human L02 cells assessed as viable cells at 10 nM after 72 hrs by annexin V-FITC/propidium iodide staining-based flow cytometric method (reference value: 96.3%); type: cell-based; details: read-out: Activity
A549 [20] = experiment: Induction of apoptosis in human A549 cells assessed as viable cells at 10 nM after 72 hrs by annexin V-FITC/propidium iodide staining-based flow cytometric method (reference value: 92.8%); type: functional; details: A549, 72 h, read-out: Activity
A549 [21] = experiment: Cell cycle arrest in human A549 cells assessed as accumulation at S phase at 10 nM after 72 hrs by propidium iodide staining-based flow cytometric method (reference value: 24.48%); type: functional
L02 [22] = experiment: Induction of morphological changes in human L02 cells at 10 to 30 nM after 72 hrs by DAPI staining-based fluorescence microscopic method; type: cell-based; details: l02, 72 h, 0.03 µM
L02 [23] = experiment: Cell cycle arrest in human L02 cells assessed as accumulation at G0/G1 phase at 10 nM after 72 hrs by propidium iodide staining-based flow cytometric method (reference value: 57.34%); type: ADME; details: l02, 72 h, 0.01 µM
L02 [24] = experiment: Induction of apoptosis in human L02 cells assessed as late apoptotic cells at 200 nM after 72 hrs by annexin V-FITC/propidium iodide staining-based flow cytometric method (reference value: 1.6%); type: cell-based; details: l02, 72 h, 0.2 µM
HepG2 = experiment: Cytotoxicity against human HepG2 cells assessed as growth inhibition after 72 hrs by MTT assay; type: functional, cell-based; details: HepG2, 72 h
A549 [25] = experiment: Cytotoxicity against human A549 cells assessed as growth inhibition after 72 hrs by MTT assay; type: functional, cell-based; details: A549, 72 h
A549 [26] = experiment: Induction of apoptosis in human A549 cells assessed as late apoptotic cells at 10 nM after 72 hrs by annexin V-FITC/propidium iodide staining-based flow cytometric method (reference value: 4.1%); type: functional
A549 [27] = experiment: Cell cycle arrest in human A549 cells assessed as accumulation at G0/G1 phase at 5 nM after 72 hrs by propidium iodide staining-based flow cytometric method (reference value: 61.29%); type: functional
L02 [28] = experiment: Cell cycle arrest in human L02 cells assessed as accumulation at G2/M phase at 100 nM after 72 hrs by propidium iodide staining-based flow cytometric method (reference value: 16.88%); type: ADME; details: l02, 72 h, 0.1 µM
L02 [29] = experiment: Induction of apoptosis in human L02 cells assessed as early apoptotic cells at 100 nM after 72 hrs by annexin V-FITC/propidium iodide staining-based flow cytometric method (reference value: 2%); type: cell-based; details: l02, 72 h, 0.1 µM
[30] = Selectivity index, ratio of IC50 for human L02 cells to IC50 for human A549 cells; type: toxicity; details: L02 cells versus A549 cells, read-out: Ratio IC50
A549 [31] = experiment: Induction of apoptosis in human A549 cells assessed as necrotic cells at 200 nM after 72 hrs by annexin V-FITC/propidium iodide staining-based flow cytometric method (reference value: 0.1%); type: functional
L02 [32] = experiment: Cell cycle arrest in human L02 cells assessed as accumulation at G0/G1 phase at 100 nM after 72 hrs by propidium iodide staining-based flow cytometric method (reference value: 57.34%); type: ADME; details: l02, 72 h, 0.1 µM
L02 [33] = experiment: Cell cycle arrest in human L02 cells assessed as accumulation at G2/M phase at 5 nM after 72 hrs by propidium iodide staining-based flow cytometric method (reference value: 16.88%); type: ADME; details: l02, 72 h, 0.005 µM

COc1cc([C@@H]2c3cc4c(cc3[C@H](OC(=O)CN(C)C(=O)OC(C)(C)C)[C@H]3COC(=O)[C@H]23)OCO4)cc(OC)c1OC
IC50 (MCF7): 133 nM
Activity (A549 [1]): Dose-dependent effect
Activity (L02 [2]): 24.04%
Activity (A549 [3]): 84.6%
Activity (L02 [4]): 1.6%
Activity (A549 [5]): 36.73%
Activity (A549 [6]): 0%
Activity (A549 [7]): 59.2%
Activity (L02 [8]): 2.1%
viability at 0.1 µM (A549 [9]): 12.4%
Activity (L02 [10]): 62.19%
Activity (A549 [11]): 17.14%
Activity (A549 [12]): Active
IC50 (L02 [13]): 160 nM
Activity (A549 [14]): 0%
Activity (L02 [15]): 65%
Activity (L02 [16]): 13.11%
viability at 0.2 µM (A549 [17]): 5.1%
Activity (A549 [18]): 3%
viability at 72 h, 0.01 µM [19]: 94.1%
viability at 0.01 µM (A549 [20]): 87.8%
Activity (A549 [21]): 27.26%
Activity (L02 [22]): Non-Toxic
Activity (L02 [23]): 62.3%
Activity (L02 [24]): 3.1%
IC50 (HepG2): 96.4 nM
IC50 (A549 [25]): 9.5 nM
Activity (A549 [26]): 8.1%
Activity (A549 [27]): 60.2%
Activity (L02 [28]): 13.78%
Activity (L02 [29]): 10.6%
selectivity ratio [30]: 16.9
Activity (A549 [31]): 0%
Activity (L02 [32]): 67.29%
Activity (L02 [33]): 13.77%
